What was measured:
cancer cell lines = experiment: Cancer cell proliferation activity of representative nucleosides, CellTiterGlo 72 h (Example 7, Tables 8 and 9); type: cell-based; settings: 72 h
Summary of the method: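 Percent viability was set against 0.1% DMSO (100%) and 10 μM staurosporine (0%), with signal from CellTiterGlo luminescence. Dose-response treatment began one day after seeding and lasted 72 h at 37° C under 5% or 10% CO2, with 0.1% final DMSO.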

human LINE-1 = experiment: Human LINE-1 (L1) retrotransposition dual-luciferase reporter assay in HeLa cells; type: cell-based; settings: Homo sapiens, HeLa, 72 h, read-out: Human LINE-1 IC50 (Human L1 activity inhibition)
Summary of the method: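 Compound dilution series (final DMSO 0.2%) added right after transfecting HeLa cells with the pYX017 L1 dual-luciferase reporter; 72 h culture at 37 °C, 5% CO2, triplicates. IC50 fitted by non-linear logistic regression to firefly-to-Renilla luminescence ratio (×10,000).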

C#C[C@]1(CO)O[C@@H](n2cnc3c(=O)[nH]c(N)nc32)C[C@@H]1O [compound 13]
IC50 (cancer cell lines; 72 h, 5637, bladder): 2270 nM | IC50 (cancer cell lines; CLS439, bladder): > 50000 nM | IC50 (cancer cell lines; HS729, muscle): 1510 nM | IC50 (cancer cell lines; J82, bladder): 1970 nM | IC50 (cancer cell lines; JAR, placenta): > 50000 nM | IC50 (cancer cell lines; MT3, breast): 370 nM | IC50 (cancer cell lines; PC3, prostate): 1800 nM | IC50 (cancer cell lines; RD, muscle): > 50000 nM | IC50 (cancer cell lines; T24, bladder): 4540 nM | IC50 (cancer cell lines; Homo sapiens, 22Rv1, 72 h, 22RV1, prostate): 2220 nM | IC50 (cancer cell lines; Homo sapiens, 786-0, 72 h, 786O, kidney): > 50000 nM | IC50 (cancer cell lines; Homo sapiens, A204, 72 h, A204, muscle): 270 nM | IC50 (cancer cell lines; Homo sapiens, A549, 72 h, A549, lung): 2060 nM | IC50 (cancer cell lines; Homo sapiens, A673, 72 h, A673, bone): > 50000 nM | IC50 (cancer cell lines; Homo sapiens, A2780, 72 h, A2780, ovary): 15600 nM | IC50 (cancer cell lines; Homo sapiens, A-375, 72 h, A375, skin): 2350 nM | IC50 (cancer cell lines; Homo sapiens, A-431, 72 h, A431, skin): 3030 nM | IC50 (cancer cell lines; Homo sapiens, ACHN, kidney): 1440 nM | IC50 (cancer cell lines; Homo sapiens, ASPC1, 72 h, ASPC1, pancreas): 1330 nM | IC50 (cancer cell lines; Homo sapiens, BT-20, 72 h, BT20, breast): > 50000 nM | IC50 (cancer cell lines; Homo sapiens, BXPC-3, 72 h, BXPC3, pancreas): 1430 nM | IC50 (cancer cell lines; Homo sapiens, C-33-A, C33A, endometrial): 2030 nM | IC50 (cancer cell lines; Homo sapiens, CAKI-1, 72 h, CAKI1, kidney): 1840 nM | IC50 (cancer cell lines; Homo sapiens, COLO 205, 72 h, COLO205, colon): 1470 nM | IC50 (cancer cell lines; Homo sapiens, COLO-678, 72 h, COLO678, colon): 4090 nM | IC50 (cancer cell lines; Homo sapiens, Ca-Ski, CASKI, endometrial): > 50000 nM | IC50 (cancer cell lines; Homo sapiens, Caco-2, 72 h, CACO2, colon): > 50000 nM | IC50 (cancer cell lines; Homo sapiens, Calu-6, 72 h, CALU6, lung): > 50000 nM | IC50 (cancer cell lines; Homo sapiens, DLD-1, 72 h, DLD1, colon): > 50000 nM | IC50 (cancer cell lines; Homo sapiens, DU-145, 72 h, DU145, prostate): 4070 nM | IC50 (cancer cell lines; Homo sapiens, EFO-21, 72 h, EFO21, ovary): 4000 nM | IC50 (cancer cell lines; Homo sapiens, EJ-28, 72 h, EJ28, bladder): 6820 nM | IC50 (cancer cell lines; Homo sapiens, Granta-519, 72 h, GRANTA-519, hematological): 2440 nM | IC50 (cancer cell lines; Homo sapiens, HCT-15, 72 h, HCT15, colon): > 50000 nM | IC50 (cancer cell lines; Homo sapiens, HCT-116, 72 h, HCT116, colon): 3370 nM | IC50 (cancer cell lines; Homo sapiens, HEK293, 72 h, HEK293, kidney): 7690 nM | IC50 (cancer cell lines; Homo sapiens, HL-60, 72 h, HL-60, hematological): 2060 nM | IC50 (cancer cell lines; Homo sapiens, HT-29, 72 h, HT29, colon): 2280 nM | IC50 (cancer cell lines; Homo sapiens, HT-1080, 72 h, HT1080, connective tissue): 3880 nM | IC50 (cancer cell lines; Homo sapiens, HeLa, endometrial): 1200 nM | IC50 (cancer cell lines; Homo sapiens, HepG2, 72 h, HEPG2, liver): 1240 nM | IC50 (cancer cell lines; Homo sapiens, Hs-578T, HS578T, breast): > 50000 nM | IC50 (cancer cell lines; Homo sapiens, IGROV-1, 72 h, IGROV1, ovary): 2760 nM | IC50 (cancer cell lines; Homo sapiens, IMR-90, 72 h, IMR90, lung): > 50000 nM | IC50 (cancer cell lines; Homo sapiens, JEG-3, 72 h, JEG3, placenta): > 50000 nM | IC50 (cancer cell lines; Homo sapiens, JIMT-1, 72 h, JIMT1, breast): 2040 nM | IC50 (cancer cell lines; Homo sapiens, K562, 72 h, K-562, hematological): > 50000 nM | IC50 (cancer cell lines; Homo sapiens, Kasumi 1, 72 h, KASUMI-1, hematological): 100 nM | IC50 (cancer cell lines; Homo sapiens, L-363, 72 h, L-363, hematological): > 50000 nM | IC50 (cancer cell lines; Homo sapiens, LoVo, colon): 3100 nM | IC50 (cancer cell lines; Homo sapiens, MCF7, 72 h, MCF7, breast): 5950 nM | IC50 (cancer cell lines; Homo sapiens, MDA-MB-231, 72 h, MDAMB231, breast): 1320 nM | IC50 (cancer cell lines; Homo sapiens, MDA-MB-435, 72 h, MDAMB435, skin): > 50000 nM | IC50 (cancer cell lines; Homo sapiens, MDA-MB-436, 72 h, MDAMB436, breast): 1500 nM | IC50 (cancer cell lines; Homo sapiens, MDA-MB-468, 72 h, MDAMB468, breast): > 50000 nM | IC50 (cancer cell lines; Homo sapiens, MG-63, 72 h, MG63, bone): > 50000 nM | IC50 (cancer cell lines; Homo sapiens, MHH-ES-1, 72 h, MHHES1, bone): > 50000 nM | IC50 (cancer cell lines; Homo sapiens, MIA PaCa-2, 72 h, MIAPACA2, pancreas): 6240 nM | IC50 (cancer cell lines; Homo sapiens, MINO, hematological): 460 nM | IC50 (cancer cell lines; Homo sapiens, MV4-11, 72 h, MV4-11, hematological): 1020 nM | IC50 (cancer cell lines; Homo sapiens, NCI-H23, 72 h, NCI-H23, lung): 4670 nM | IC50 (cancer cell lines; Homo sapiens, NCI-H82, 72 h, NCIH82, lung): 15400 nM | IC50 (cancer cell lines; Homo sapiens, NCI-H292, 72 h, NCIH292, lung): 1070 nM | IC50 (cancer cell lines; Homo sapiens, NCI-H460, 72 h, NCIH460, ung): 1410 nM | IC50 (cancer cell lines; Homo sapiens, OVCAR-3, 72 h, OVCAR3, ovary): 760 nM | IC50 (cancer cell lines; Homo sapiens, OVCAR-4, 72 h, OVCAR4, ovary): > 50000 nM | IC50 (cancer cell lines; Homo sapiens, PANC-1, 72 h, PANC1, pancreas): > 50000 nM | IC50 (cancer cell lines; Homo sapiens, PLC-PRF-5, 72 h, PLCPRF5, liver): 2100 nM | IC50 (cancer cell lines; Homo sapiens, Panc1005, 72 h, PANC1005, pancreas): 3080 nM | IC50 (cancer cell lines; Homo sapiens, Ramos, hematological): 1170 nM | IC50 (cancer cell lines; Homo sapiens, SAOS-2, 72 h, SAOS2, bone): 1660 nM | IC50 (cancer cell lines; Homo sapiens, SF-268, 72 h, SF268, brain): > 50000 nM | IC50 (cancer cell lines; Homo sapiens, SF-295, 72 h, SF295, brain): 7160 nM | IC50 (cancer cell lines; Homo sapiens, SK-BR-3, 72 h, SKBR3, breast): 4610 nM | IC50 (cancer cell lines; Homo sapiens, SK-HEP1, 72 h, SKHEP1, liver): 2290 nM | IC50 (cancer cell lines; Homo sapiens, SK-LMS-1, 72 h, SKLMS1, uterus): 2380 nM | IC50 (cancer cell lines; Homo sapiens, SK-MEL-5, 72 h, SKMEL5, skin): > 50000 nM | IC50 (cancer cell lines; Homo sapiens, SK-MEL-28, 72 h, SKMEL28, skin): 6060 nM | IC50 (cancer cell lines; Homo sapiens, SK-N-AS, SKNAS, brain): 2440 nM | IC50 (cancer cell lines; Homo sapiens, SK-N-SH, SKNSH, brain): 2290 nM | IC50 (cancer cell lines; Homo sapiens, SK-OV-3, 72 h, SKOV3, ovary): 2020 nM | IC50 (cancer cell lines; Homo sapiens, SNB-75, 72 h, SNB75, brain): 12800 nM | IC50 (cancer cell lines; Homo sapiens, SU-DHL10, 72 h, SU-DHL-10, hematological): 5600 nM | IC50 (cancer cell lines; Homo sapiens, SU-DHL-6, 72 h, SU-DHL-6, hematological): 4190 nM | IC50 (cancer cell lines; Homo sapiens, SW-620, 72 h, SW620, colon): 1820 nM | IC50 (cancer cell lines; Homo sapiens, TE-671, 72 h, TE671, muscle): > 50000 nM | IC50 (cancer cell lines; Homo sapiens, THP-1, 72 h, THP-1, hematological): 1970 nM | IC50 (cancer cell lines; Homo sapiens, U2OS, bone): > 50000 nM | IC50 (cancer cell lines; Homo sapiens, U-87 MG, U87MG, brain): 2380 nM | IC50 (cancer cell lines; Homo sapiens, UMUC3, 72 h, UMUC3, bladder): > 50000 nM | IC50 (cancer cell lines; Homo sapiens, UO-31, 72 h, UO31, kidney): 3290 nM | IC50 (cancer cell lines; Homo sapiens, WSU-NHL, hematological): 2770 nM | IC50 (cancer cell lines; NCI-H358M, NCIH358M, lung): 330 nM | IC50 (cancer cell lines; PBMC, hematological): 190 nM | IC50 (cancer cell lines; RD-ES, RDES, bone): 2480 nM | IC50 (human LINE-1): 0.51 nM

Reference: US20230293526A1, “METHOD FOR TREATING CANCER WITH A REVERSE TRANSCRIPTASE INHIBITOR” (PrimeFour Therapeutics, Inc., priority 2020, published 2023)
